One test relates to Human BMSCs. Kind of test: Fatty acid composition of BMSC after fatty acid supplementation of media (lipid extraction, gas chromatography). Format: cell-based. How it is done: DHA and AA were diluted in DMEM with 1% horse serum. α-tocopherol was dissolved in ethanol (absolute) before supplementation. FA and α-tocopherol were stored at 4° C. in darkness to prevent their oxidation. Following forty-eight hours, the “additional differentiation medium” was changed to “differentiation medium”, containing DMEM supplemented with SPN, 2 mM L-glutamine, 200 μM butylated hydroxyanisole (BHA), 1 mM dibutyryl cyclic AMP (dbcAMP), 0.5 mM isobutylmethylxanthine (IBMX), 1 μM retinoic acid (RA) and N2 supplement with increasing amounts of DHA (Sigma) and AA (Sigma) (0, 30, 40, 50 and 60 μM). α-tocopherol was added at a concentration of 40 μM to all samples.
Following removal of medium from the culture dish, adherent cells were washed twice with cold PBS and dried by gentle aspiration with a Pasteur pipette. To each culture dish, 3 ml of a hexane:isopropanol (3:2 vol:vol) (HIP) solvent mixture containing 5 mg/dl butylated hydroxytoluene (BHT) was added. The dishes were gently shaken at room temperature for 10 minutes and the supernates were transferred to methylation tubes. The procedure was repeated with 1.5 ml HIP and the lipid extracts were added to the same tubes. For quantitative experiments which included simultaneous protein determination, lipid extraction was performed with HIP which contained a known amount of heneicosanoic acid (21:0) so as to obtain an internal standard. In addition, for these experiments, known volumes of concentrated cell suspensions were directly extracted with HIP and the protein content was determined from an equal volume of cell concentrates.
The lipid extracts were evaporated to dryness under a stream of nitrogen. […] The tubes were capped under N2, vortexed and heated at 100° C. for 1 hour. The resulting fatty acid methyl esters (FAME) were extracted into hexane, after acidification of the mixture with 3 drops of 3N HCl, and kept under N2 at −20° C. until analysis.
Injection was performed with a split/splitless injector kept at 220° C. at a split ratio of 1:30. Detector temperature was 250° C. The column temperature gradient was as follows: 70° C. for 2 min, increased at a rate of 20° C./min to 150° C. where it remained for 5 min, increased at 3° C./min to 210° C. and a final increase at 10° C./min to 230° C. at which it was kept for 3 min until the end of the run. FAME peaks were integrated and computed with the aid of the Varian Star Integrator computer package and were identified by comparison of their retention times with that of authentic standards. Injection of the samples was performed with the aid of a CTC-AS 200 autosampler.
The amount of individual fatty acids is presented as % weight of the total identified fatty acids and as μg FA/μg protein.

In a further test the test system is hBMSc. In words: HPLC analysis of dopamine, DOPA and DOPAC in supernatant of differentiating hBMSc. Format: cell-based, human. As to conditions: medium supplemented with 56 mM KCl, 10 minutes incubation. How it is done:
hBMSc were cultured as described in Table 6 below. [table] Samples were stabilized by adding 88 μl of 85% orthophosphoric acid and 4.4 mg of metabisulfite to ml sample. Dopamine was extracted by aluminium adsorption (Alumina, Bioanalytical Systems Inc.). Separation of injected samples (50 μl) was effected by isocratic elution on a HPLC-electron chemical detection (HPLC-ECD) system with a reverse-phase C18 column (125×4.6 mm dimension, Hichrom, Inc.) in a monochloroacetate buffer mobile phase. The flow rate was set at 1.2 ml per min, and the oxidative potential of the analytical cell was set at +650 mV. Results were validated by co-elution with dopamine standards under varying buffer conditions and detector settings.

For the next test, the system named is mBMSc. In words: Differentiation of mouse BMSc into oligodendrocyte precursors (morphology, survival, A2B5 immunoassay). The class given is cell-based. The conditions noted are these: for effect on cell-morphology (comparison of substances) / neuronal cell morphology: 24 hr incubation; for neuronal cell morphology: inducing substance alone. How it is done: Mice B5/EGFP (male) were sacrificed by cervical dislocation and were prepared with 70% alcohol solution. […] The cell pellet was resuspended in 1 ml growth medium and diluted to 10 ml. The cells were plated in polystyrene plastic tissue cultures 75 cm^2 flask (Corning Incorporated, Corning, N.Y.) in the “proliferation medium” (see Example 1 hereinabove) for one week. The cells were then transferred to polylysin-coated slide-chambers (3200 cells/well), supplemented “proliferation medium” and incubated for 24 hours at 37° C. The growth medium was then replaced with “oligodendrocytes differentiation media” composed of DMEM supplemented with 2 mM glutamine, SPN, one or more of the following substances: bFGF (10 ng/ml), EGF (10-20 ng/ml), Interlukin-1b (20-40 ng/ml), dbcAMP (1-2 mM), retinoic acid (0.5 or 1 μM), neurotrophin-3 (50 or 100 ng/ml), human platelet derived growth factor (PDGF-AA; 5-20 ng/ml), N2 supplement, triiodothyronien (T3; 40 ng/ml) and ciliary neurotrophic factor (20 ng/ml; CNTF).
The cultures were incubated at 37° C. for 1, 2 or 6 days (replacing growth media with fresh media every two days) then fixed in 4% PFA. Cells were blocked in 10% FCS solution then incubated with 5 ug/ml anti-A2B5 monoclonal antibody (1:200; R&D systems; 1:200) overnight at 4° C. Cells were then washed twice in PBS for 10 min and incubated with goat-anti-mouse Cy-3 second antibody (Jackson laboratories; 1:500) at room temperature for 20 min. The incidence of cells stained positive for A2B5 (an early marker of oligodendrocyte progenitors) was determined by using a fluorescent microscope equipped with Image ProPlus cell-counting program (Cybernetics).

Setting [1] is: +DHA (30 μM), Additional differentiation medium.

Consider `CCCCC/C=C\C/C=C\C/C=C\C/C=C\CCCC(=O)O` [AA, arachidonic acid], for which the “optimal concentration in the additional differentiation medium to obtain the best cellular FA profile” value in the test with Human BMSCs was found to be 40 µM.

For the molecule `CC/C=C\C/C=C\C/C=C\C/C=C\C/C=C\C/C=C\CCC(=O)O` [DHA, docosahexaenoic acid], in the test with Human BMSCs, the “optimal concentration in the additional differentiation medium to obtain the best cellular FA profile” value is 40 µM. Also, in the test on Human BMSCs (setting [1]), the “20:4 n-6 of BMSC” value came out at 8.15 % weight, the “22:6 n-3 of BMSC” value was found to be 16.70 % weight, the “Sum MUFA of BMSC” value worked out at 24.24 % weight and the “Sum PUFA of BMSC” value is given as 33.08 % weight. Moreover, the “Sum Saturated fatty acids of BMSC” value in the test on Human BMSCs (setting [1]) is 42.69 % weight. In addition, in the test with Human BMSCs (+DHA, Differentiation medium), the “20:4 n-6 of BMSC” value is recorded as 5.40 % weight, the “22:6 n-3 of BMSC” value is reported as 13.01 % weight, the “Sum MUFA of BMSC” value stood at 12.32 % weight and the “Sum PUFA of BMSC” value was 25.71 % weight. Moreover, the “Sum Saturated fatty acids of BMSC” value in the test with Human BMSCs (+DHA, Differentiation medium) is 61.79 % weight.

Regarding `[Cl-].[K+]` [KCl], the “effect on dopamine secretion” value with hBMSc is “further enhanced dopamine secretion”.

Regarding `CCCC(=O)Nc1ncnc2c1ncn2[C@@H]1O[C@@H]2COP(=O)(O)O[C@H]2[C@H]1OC(=O)CCC` [dbcAMP, dibutyryl cyclic AMP], in the test with mBMSc, the “effect on cell-morphology (comparison of substances)” value (“effect on cell-morphology” for short) was “most pronounced effect on cell-morphology” and the neuronal cell morphology result is “Neuronal cell morphology was observed”.

Take `N[C@@H](Cc1cc(I)c(Oc2ccc(O)c(I)c2)c(I)c1)C(=O)O` [thyroid factor 3, triiodothyronien]: the “effect on cell-morphology” value in the test on mBMSc was “most pronounced effect on cell-morphology”.

For the molecule `Cc1c(C)c2c(c(C)c1O)CC[C@@](C)(CCC[C@H](C)CCC[C@H](C)CCCC(C)C)O2` [α-Tocopherol, α-tocopherol], the “effect on PUFA composition of the neuron-like cells” value in the test with Human BMSCs (40 μM) is “did not affect the PUFA composition”.

For “IL-6: IL-6, named only in the result sentence (data not shown)”, in the test on mBMSc, the “effect on cell-morphology” value is given as “most pronounced effect on cell-morphology”.

Turning to Interlukin-1b [IL-1b], the neuronal cell morphology result in the test with mBMSc is on record as “Neuronal cell morphology was observed”.

B1: neurotrophin-3 (protein, UniProt P20783 139-257, looked up)
Neurotrophin-3: YAEHKSHRGEYSVCDSESLWVTDKSSAIDIRGHQVTVLGEIKTGNSPVKQYFYETRCKEARPVKNGCRGIDDKHWNSQCKTSQTYVRALTSENNKLVGWRWIRIDTSCVCALSRKIGRT
notes: neurotrophin-3, inducing substance in oligodendrocytes differentiation media
B1: in the test with mBMSc, the “incidence of antibody-labeled A2B5 (comparison of substances)” value is given as “highest incidence”, the “effect on cell-morphology” value is recorded as “most pronounced effect on cell-morphology” and the neuronal cell morphology result was “Neuronal cell morphology was observed”.

These data come from US20130236964A1, “METHODS, NUCLEIC ACID CONSTRUCTS AND CELLS FOR TREATING NEURODEGENERATIVE DISORDERS” (RAMOT AT TEL-AVIV UNIVERSITY LTD., priority 2002, published 2013).
